The values below come from patent US4277479A, “Tetrazolylalkoxycarbostyril derivatives and pharmaceutical compositions containing them” (Otsuka Pharmaceutical Co., Ltd., priority 1978, dated 1981).

The assay has as its target T1, cyclic AMP phosphodiesterase (Oryctolagus cuniculus, UniProt G1ST54).
T1 construct: the supernatant was collected to use it as a crude enzyme solution; from tissue; host or cells: rabbit platelets (from platelet-rich plasma)
T1 sequence (G1ST54 1-1128): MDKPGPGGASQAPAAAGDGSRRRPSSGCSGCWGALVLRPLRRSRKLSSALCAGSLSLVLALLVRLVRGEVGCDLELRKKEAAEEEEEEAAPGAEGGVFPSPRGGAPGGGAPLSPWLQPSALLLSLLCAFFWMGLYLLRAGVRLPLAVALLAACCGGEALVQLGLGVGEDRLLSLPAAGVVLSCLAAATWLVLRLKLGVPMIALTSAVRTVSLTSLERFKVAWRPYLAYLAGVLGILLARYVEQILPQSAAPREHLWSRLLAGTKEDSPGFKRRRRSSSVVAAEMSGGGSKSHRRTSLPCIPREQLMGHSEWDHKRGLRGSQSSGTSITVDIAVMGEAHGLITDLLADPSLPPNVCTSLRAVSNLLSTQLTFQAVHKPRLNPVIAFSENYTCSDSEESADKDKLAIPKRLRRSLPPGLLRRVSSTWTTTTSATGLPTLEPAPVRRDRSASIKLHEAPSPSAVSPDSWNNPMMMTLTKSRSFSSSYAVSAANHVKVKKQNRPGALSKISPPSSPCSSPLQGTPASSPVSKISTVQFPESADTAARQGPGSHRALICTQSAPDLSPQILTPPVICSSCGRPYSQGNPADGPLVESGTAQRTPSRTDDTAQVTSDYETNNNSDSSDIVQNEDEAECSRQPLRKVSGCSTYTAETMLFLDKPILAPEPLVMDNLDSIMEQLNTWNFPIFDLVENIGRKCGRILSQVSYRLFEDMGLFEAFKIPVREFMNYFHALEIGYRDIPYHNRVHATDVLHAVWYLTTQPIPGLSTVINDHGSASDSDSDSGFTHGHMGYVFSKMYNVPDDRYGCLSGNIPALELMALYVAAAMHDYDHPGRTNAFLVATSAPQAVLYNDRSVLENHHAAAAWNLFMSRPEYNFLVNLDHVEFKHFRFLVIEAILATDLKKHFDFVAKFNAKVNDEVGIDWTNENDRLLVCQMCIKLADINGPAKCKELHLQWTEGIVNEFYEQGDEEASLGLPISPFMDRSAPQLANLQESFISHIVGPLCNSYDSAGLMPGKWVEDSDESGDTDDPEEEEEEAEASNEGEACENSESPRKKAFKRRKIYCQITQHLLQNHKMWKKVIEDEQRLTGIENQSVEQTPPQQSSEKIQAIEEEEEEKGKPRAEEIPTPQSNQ
Briefly: Obstructive action against cyclic AMP phosphodiesterase. Particulars: 0.4 μmol cyclic AMP, read-out: Phosphodiesterase obstruction rate; for inhibition: concentration of test compound solution 10^-7 mole; for inhibition at 0.01 µM: concentration of test compound solution 10^-8 mole; for inhibition at 0.001 µM: concentration of test compound solution 10^-9 mole; for inhibition at 1 µM: concentration of test compound solution 10^-6 mole. It is filed as biochemical, rabbit. How it is done:
(Test of obstructive action against cyclic AMP phosphodiesterase)
The obstructive action against cyclic AMP phosphodiesterase was measured according to the activity measuring method described in "Biochimica et Biophysica Acta", Vol. 429, pp. 485-497 (1976) and "Biochemical Medicine", Vol. 10, pp. 301-311 (1974).
That is, for determining the obstructive activity against cyclic AMP phosphodiesterase, 10 ml of a solution obtained by adding 1 mmol of MgCl2 into 50 mmol of tris-hydrochloric acid buffer with pH 7.4 was added to the platelets obtained by further centrifuging the above-said rabbit PRP at 3,000 r.p.m. for 10 minutes, and the suspended platelets were ground by a Teflon potter type homogenizer. This was followed by two times of freezing and thawing treatment and 300-second fracturing with 200 watt supersonic waves. After additional 60-minute centrifugation with 100,000 g, the supernatant was collected to use it as a crude enzyme solution.
10 Milliliters of this crude buffer solution was added to a 1.5×20 cm DEAE-cellulose column which has previously been buffered with 50 mmol of tris-acetate buffer (pH 6.0), followed by washing and elution with 30 ml of 50 mmol tris-acetate buffer, and this buffer solution was subjected to linear gradient elution with 0 to 1 moles of sodium acetate-tris-acetate buffer. The flow rate was 0.5 ml/min, and 5 ml of each fraction was batched out. […] This fraction was used as cyclic AMP phosphodiesterase.
0.1 Milliliter of an aqueous solution of each test compound of a specified concentration was mixed with 40 mmol of tris-hydrochloric acid buffer (pH 8.0, containing 50 μg of cow serum albumin and 4 mmol of MgCl2) containing predetermined 0.4 μmol of cyclic AMP (tritium cyclic AMP), and 0.2 ml of this mixed solution was used as a substrate solution.
0.2 Milliliter of the above-prepared cyclic AMP phosphodiesterase of a predetermined concentration was added to said substrate solution and the mixture was reacted at 30° C. for 20 minutes, producing tritium 5'-AMP from the tritium cyclic AMP.
The reaction system was then immersed in boiling water for 2 minutes to stop the reaction, and then this reaction solution was cooled in ice water and, for converting the produced tritium 5'-AMP into tritium adenosine, the solution was added with 0.05 ml (1 mg/ml) of snake poison as 5'-nucleotidase and reacted at 30° C. for 10 minutes. The whole amount of this reaction solutions was then added to a cation exchange resin (AG 500 W×4, 200-400 meshes, manufactured by Bio-Rad Co., column size: 0.5×1.5 cm), and the produced tritium anodesine alone was allowed to combine, washed with 6 ml of distilled water and eluted with 1.5 ml of 3 N-ammonia water. The whole quantity of the elutant was added with 10 ml of a triton-toluene type scintillator and the produced tritium adenosine was measured by a liquid scintillation counter to determine the phosphodiesterase activity.
In this way, the phosphodiesterase activation value (Vs) of the test compounds of the respective concentrations was determined, and the phosphodiesterase obstruction rate (%) was determined from said activation value (Vs) and control value (Vc) (obtained from water not containing any test compound) from the following formula: [formula]

Structures are written as SMILES.

On to `O=c1ccc2cc(OCCCCc3nnnn3C3CCCCC3)ccc2[nH]1` [Compound 7, 6-[4-(1-Cyclohexyltetrazol-5-yl)butoxy]carbostyril], for which the inhibition was found to be 98.4%, the inhibition at 0.01 µM came out at 68.3% and the inhibition at 0.001 µM was found to be 50.6%.
For the molecule `O=c1ccc2cc(OCCCc3nnnn3CC3CCCCC3)ccc2[nH]1` [Compound 5, 6-[3-(1-Cyclohexylmethyltetrazol-5-yl)propoxy]carbostyril], the inhibition at 1 µM was determined as 89.9%, the inhibition worked out at 73.4%, the inhibition at 0.01 µM was 55.2% and the inhibition at 0.001 µM amounted to 38.6%.
Regarding `O=c1ccc2cc(OCCCc3nnnn3C3CCCCC3)ccc2[nH]1` [Compound 1, 6-[3-(1-Cyclohexyltetrazol-5-yl)propoxy]carbostyril], the inhibition at 1 µM was found to be 92.9%, the inhibition was 83.8%, the inhibition at 0.01 µM is 58.4% and the inhibition at 0.001 µM amounted to 44.7%.
`O=c1ccc2cc(OCCCc3nnnn3C3CCCCCCC3)ccc2[nH]1` [Compound 6, 6-[3-(1-Cyclooctyltetrazol-5-yl)propoxy]carbostyril]: the inhibition at 1 µM is 88.4%, the inhibition was 79.6%, the inhibition at 0.01 µM worked out at 57.4% and the inhibition at 0.001 µM was 36.5%.
